Tested on: HCV 1b genotype
Assay: HCV Replicon assay (HCV-neo replicon cells, wild-type)
Type: cell-based
Settings: HCV 1b genotype replicon
Summary of the method: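 Inhibition was measured in HCV-neo (genotype 1b) replicon cells. Some assay versions used luciferase reporters.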

[1] = Hepatitis C virus, class symbols
[2] = Hepatitis C virus, numeric values

COC(=O)N[C@@H](C(=O)N1[C@@H]2C[C@@H]2C[C@H]1c1nc2cc(-c3ccc(Oc4cccc5[nH]c([C@@H]6C[C@H]7C[C@H]7N6C(=O)[C@H](NC(=O)OC)C(C)C)nc45)cc3)ccc2[nH]1)C(C)C [Example V7, methyl ((1R)-1-(((1R,3S,5R)-3-(4-(4-(2-((1R,3S,5R)-2-((2R)-2-(methoxycarbonyl)amino)-3-methylbutanoyl)-2-azabicyclo[3.1.0]hex-3-yl)-1H-benzimidazol-5-yl)phenoxy)-1H-benzimidazol-2-yl)-2-azabicyclo[3.1.0]hex-2-yl)carbonyl)-2-methylpropyl) carbamate]
EC50 (class symbols): 4.57 to 99 nM

COC(=O)N[C@@H](C)C(=O)N1[C@@H]2C[C@@H]2C[C@H]1c1nc2cc(-c3ccc(Oc4cccc5[nH]c([C@@H]6C[C@H]7C[C@H]7N6C(=O)[C@H](C)NC(=O)OC)nc45)cc3)ccc2[nH]1 [Example V8, methyl ((1S)-2-((1R,3S,5R)-3-(5-(4-((2-((1R,3S,5R)-2-(N-(methoxycarbonyl)-L-alanyl)-2-azabicyclo[3.1.0]hex-3-yl)-1H-benzimidazol-4-yl)oxy)phenyl)-1H-benzimidazol-2-yl)-2-azabicyclo[3.1.0]hex-2-yl)-1-methyl-2-oxoethyl) carbamate]
EC50 (class symbols): < 4.57 nM

COC(=O)NC(C(=O)N1[C@@H]2C[C@@H]2C[C@H]1c1nc2cc(-c3ccc(Oc4cccc5[nH]c([C@@H]6C[C@H]7C[C@H]7N6C(=O)C(NC(=O)OC)c6ccccc6)nc45)cc3)ccc2[nH]1)c1ccccc1 (stereo partly drawn) [Example V9, methyl (2-((1R,3S,5R)-3-(5-(4-((2-((1R,3S,5R)-2-(((methoxycarbonyl)amino)(phenyl)acetyl)-2-azabicyclo[3.1.0]hex-3-yl)-1H-benzimidazol-4-yl)oxy)phenyl)-1H-benzimidazol-2-yl)-2-azabicyclo[3.1.0]hex-2-yl)-2-oxo-1-phenylethyl) carbamate]
EC50 (class symbols): < 4.57 nM

COC(=O)NC(C(=O)N1[C@@H]2C[C@@H]2C[C@H]1c1nc2cc(-c3ccc(Oc4cccc5[nH]c([C@@H]6C[C@H]7C[C@H]7N6C(=O)C(NC(=O)OC)c6ccccc6)nc45)cc3)ccc2[nH]1)c1ccccc1 (stereo partly drawn) [Example V10, methyl (2-((1R,3S,5R)-3-(5-(4-((2-((1R,3S,5R)-2-(((methoxycarbonyl)amino)(phenyl)acetyl)-2-azabicyclo[3.1.0]hex-3-yl)-1H-benzimidazol-4-yl)oxy)phenyl)-1H-benzimidazol-2-yl)-2-azabicyclo[3.1.0]hex-2-yl)-2-oxo-1-phenylethyl) carbamate]
EC50 (class symbols): < 4.57 nM

COC(=O)N[C@H](C(=O)N1CCC[C@H]1c1nc2cc(-c3ccc(Oc4cccc5[nH]c([C@@H]6CCCN6C(=O)[C@@H](NC(=O)OC)C(C)C)nc45)cc3)ccc2[nH]1)C(C)C [Example V11, Methyl((1S)-1-(((2S)-2-(4-(4-(2-((2S)-1-((2S)-2-((methoxycarbonyl)amino)-3-methylbutanoyl)-2-pyrrolidinyl)-1H-benzimidazol-5-yl)phenoxy)-1H-benzimidazol-2-yl)-1-pyrrolidinyl)carbonyl)-2-methylpropyl)carbamate]
EC50 [1]: < 4.57 nM

COC(=O)N[C@H](C(=O)N1CCC[C@H]1c1nc2cc(Oc3ccc(-c4ccc5[nH]c([C@@H]6CCCN6C(=O)[C@@H](NC(=O)OC)C(C)C)nc5c4)cc3)ccc2[nH]1)C(C)C [Example V12, Methyl((1S)-1-(((2S)-2-(5-(4-(2-((2S)-1-((2S)-2-((methoxycarbonyl)amino)-3-methylbutanoyl)-2-pyrrolidinyl)-1H-benzimidazol-5-yl)phenoxy)-1H-benzimidazol-2-yl)-1-pyrrolidinyl)carbonyl)-2-methylpropyl)carbamate]
EC50 [1]: < 4.57 nM

C[C@](O)(C(=O)N1CCC[C@H]1c1nc2ccc(-c3ccc(-c4ccc5nc([C@@H]6CCCN6C(=O)[C@](C)(O)c6ccccc6)[nH]c5c4)o3)cc2[nH]1)c1ccccc1 [JG1, (2R,2′R)-1,1′-(2,5-furandiylbis(1H-benzimidazole-5,2-diyl(2S)-2,1-pyrrolidinediyl))bis(1-oxo-2-phenyl-2-propanol)]
EC50 [1]: 4.57 to 99 nM

O=C([C@H](O)c1ccccc1)N1CCC[C@H]1c1nc2cc(-c3ccc(-c4ccc5[nH]c([C@@H]6CCCN6C(=O)[C@H](O)c6ccccc6)nc5c4)o3)ccc2[nH]1 [JG2, (1R,1′R)-2,2′-(2,5-furandiylbis(1H-benzimidazole-5,2-diyl(2S)-2,1-pyrrolidinediyl))bis(2-oxo-1-phenylethanol)]
EC50 [1]: < 4.57 nM

O=C([C@@H](O)c1ccccc1)N1CCC[C@H]1c1nc2cc(-c3ccc(-c4ccc5[nH]c([C@@H]6CCCN6C(=O)[C@@H](O)c6ccccc6)nc5c4)o3)ccc2[nH]1 [JG3, (1S,1′S)-2,2′-(2,5-furandiylbis(1H-benzimidazole-5,2-diyl(2S)-2,1-pyrrolidinediyl))bis(2-oxo-1-phenylethanol)]
EC50 [1]: 4.57 to 99 nM

CN(C)[C@@H](C(=O)N1CCC[C@H]1c1nc2cc(-c3ccc(-c4ccc5nc([C@@H]6CCCN6C(=O)[C@@H](c6ccccc6)N(C)C)[nH]c5c4)o3)ccc2[nH]1)c1ccccc1 [JG4, (1R)-2-((2S)-2-(5-(5-(2-((2S)-1-((2R)-2-(dimethylamino)-2-phenylacetyl)-2-pyrrolidinyl)-1H-benzimidazol-6-yl)-2-furyl)-1H-benzimidazol-2-yl)-1-pyrrolidinyl)-N,N-dimethyl-2-oxo-1-phenylethanamine]
EC50 [1]: < 4.57 nM

C[C@H](NC(=O)OCc1ccccc1)c1nc2cc(CCc3ccc4[nH]c([C@H](C)NC(=O)OCc5ccccc5)nc4c3)ccc2[nH]1 [OL1, benzyl((1S)-1-(5-(2-(2-((1)-1-(((benzyloxy)carbonyl)amino)ethyl)-1H-benzimidazol-6-yl)ethyl)-1H-benzimidazol-2-yl)ethyl)carbamate]
EC50 [1]: 4.57 to 99 nM

CC(C)(C)OC[C@H](NC(=O)OCc1ccccc1)c1nc2cc(CCc3ccc4nc([C@H](COC(C)(C)C)NC(=O)OCc5ccccc5)[nH]c4c3)ccc2[nH]1 [OL2, benzyl ((1R)-1-(5-(2-(2-((1R)-1-(((benzyloxy)carbonyl)amino)-2-tert-butoxyethyl)-1H-benzimidazol-6-yl)ethyl)-1H-benzimidazol-2-yl)-2-tert-butoxyethyl)carbamate]
EC50 [2]: 20 nM

O=C1CC[C@@H](c2nc3cc(CCc4ccc5nc([C@@H]6CCC(=O)N6C(=O)OCc6ccccc6)[nH]c5c4)ccc3[nH]2)N1C(=O)OCc1ccccc1 [OL3, benzyl (2S)-2-(5-(2-(2-((2S)-1-(((benzyloxy)carbonyl)-5-oxo-2-pyrrolidinyl)-1H-benzimidazol-6-yl)ethyl)-1H-benzimidazol-2-yl)-5-oxo-1-pyrrolidinecarboxylate]
EC50 (class symbols): 100 to 999 nM

CSCC[C@H](NC(=O)OCc1ccccc1)c1nc2cc(CCc3ccc4nc([C@H](CCSC)NC(=O)OCc5ccccc5)[nH]c4c3)ccc2[nH]1 [OL4, benzyl ((1S)-1-(5-(2-(2-((1S)-1-(((benzyloxy)carbonyl)amino)-3-(methylsulfanyl)propyl)-1H-benzimidazol-6-yl)ethyl)-1H-benzimidazol-2-yl)-3-(methylsulfanyl)propyl) carbamate]
EC50 (class symbols): 4.57 to 99 nM

CC(C)(C)O[C@@H]1C[C@@H](c2nc3cc(CCc4ccc5nc([C@@H]6C[C@@H](OC(C)(C)C)CN6C(=O)OCc6ccccc6)[nH]c5c4)ccc3[nH]2)N(C(=O)OCc2ccccc2)C1 [OL5, benzyl (2S,4R)-2-(5-(2-(2-((2S,4R)-1-((benzyloxy)carbonyl)-4-tert-butoxy-2-pyrrolidinyl)-1H-benzimidazol-6-yl)ethyl)-1H-benzimidazol-2-yl)-4-tert-butoxy-1-pyrrolidinecarboxylate]
EC50 [1]: 100 to 999 nM

C[C@@H](NC(=O)OCc1ccccc1)c1nc2cc(CCc3ccc4nc([C@@H](C)NC(=O)OCc5ccccc5)[nH]c4c3)ccc2[nH]1 [OL6, benzyl ((1R)-1-(5-(2-(2-(1R)-1-(((benzyloxy)carbonyl)amino)ethyl-1H-benzimidazol-6-yl)ethyl)-1H-benzimidazol-2-yl)ethyl)carbamate]
EC50 (class symbols): 100 to 999 nM

CC[C@H](NC(=O)OCc1ccccc1)c1nc2cc(CCc3ccc4nc([C@H](CC)NC(=O)OCc5ccccc5)[nH]c4c3)ccc2[nH]1 [OL7, benzyl ((1S)-1-(5-(2-(2-((1S)-1-(((benzyloxy)carbonyl)amino)propyl)-1H-benzimidazol-6-yl)ethyl)-1H-benzimidazol-2-yl)propyl)carbamate]
EC50 [1]: 4.57 to 99 nM

CC(C)(C)OC(=O)N1CCN(C(=O)OCc2ccccc2)C(c2nc3cc(CCc4ccc5nc(C6CN(C(=O)OC(C)(C)C)CCN6C(=O)OCc6ccccc6)[nH]c5c4)ccc3[nH]2)C1 (stereo not drawn) [OL8, 1-benzyl 4-tert-butyl 2-(5-(2-(2-(1-((benzyloxy)carbonyl)-4-(tert-butoxycarbonyl)-2-piperazinyl)-1H-benzimidazol-6-yl)ethyl)-1H-benzimidazol-2-yl)-1,4-piperazinedicarboxylate]
EC50 [2]: 2880 nM

CC(C)(C)OC(=O)C[C@H](NC(=O)OCc1ccccc1)c1nc2cc(CCc3ccc4nc([C@H](CC(=O)OC(C)(C)C)NC(=O)OCc5ccccc5)[nH]c4c3)ccc2[nH]1 [OL9, tert-butyl (3S)-3-(((benzyloxy)carbonyl)amino)-3-(5-(2-(2-((1S)-1-(((benzyloxy)carbonyl)amino)-3-tert-butoxy-3-oxopropyl)-1H-benzimidazol-6-yl)ethyl)-1H-benzimidazol-2-yl)propanoate]
EC50 [1]: 4.57 to 99 nM

CC(C)(C)OC(=O)CC[C@H](NC(=O)OCc1ccccc1)c1nc2cc(CCc3ccc4nc([C@H](CCC(=O)OC(C)(C)C)NC(=O)OCc5ccccc5)[nH]c4c3)ccc2[nH]1 [OL10, tert-butyl (4S)-4-(((benzyloxy)carbonyl)amino)-4-(5-(2-(2-((1S)-1-(((benzyloxy)carbonyl)amino)-4-tert-butoxy-4-oxobutyl)-1H-benzimidazol-6-yl)ethyl)-1H-benzimidazol-2-yl)butanoate]
EC50 [1]: 100 to 999 nM

O=C(C1CC1)N1CCN(C(=O)OCc2ccccc2)C(c2nc3cc(CCc4ccc5nc(C6CN(C(=O)C7CC7)CCN6C(=O)OCc6ccccc6)[nH]c5c4)ccc3[nH]2)C1 (stereo not drawn) [OL12, benzyl 2-(5-(2-(2-(1-((benzyloxy)carbonyl)-4-(cyclopropylcarbonyl)-2-piperazinyl)-1H-benzimidazol-6-yl)ethyl)-1H-benzimidazol-2-yl)-4-(cyclopropylcarbonyl)-1-piperazinecarboxylate]
EC50 [1]: 100 to 999 nM
